Patent publication US11608328B2, “Chemical probes to identify anti-mycobacterial MmpL3 inhibitors” (Creighton University, priority 2019, dated 2023)
≈ marks a conversion by molar mass, not a printed value. Where “and” joins values, the source holds several entries; their conditions need not be identical. Equal values may be shown once. Entries after “also recorded” stand apart in the source; their conditions may differ. Read-outs that look alike come from different tables or passages of the source. Marks after values point to notes of the source that are not given here.

Columns and labels:
Mtb = experiment: MIC values against Mtb used for the PMF assays; type: cell-based, Mycobacterium tuberculosis; settings: read-out: MIC values
[1] = system: MsmgΔmmpL3 expressing wild-type mmpL3tb; experiment: microbe, parasite or virus in culture; type: cell-based
[2] = system: MsmgΔmmpL3 expressing mmpL3tb L189R; type: cell-based, Mycobacterium smegmatis
[3] = system: MsmgΔmmpL3 expressing mmpL3tb G253E; type: cell-based, Mycobacterium smegmatis
[4] = system: MsmgΔmmpL3 expressing mmpL3tb S591I; type: cell-based, Mycobacterium smegmatis
[5] = system: MsmgΔmmpL3 expressing mmpL3tb V684G; type: cell-based, Mycobacterium smegmatis
[6] = system: MsmgΔmmpL3 expressing mmpL3tb V684A; type: cell-based, Mycobacterium smegmatis
[7] = system: MsmgΔmmpL3 expressing mmpL3tb LI89A; experiment: microbe, parasite or virus in culture; type: cell-based; settings: Table 2, mutant LI89A
[8] = system: MsmgΔmmpL3 expressing mmpL3tb G253R; type: cell-based, Mycobacterium smegmatis
[9] = system: MsmgΔmmpL3 expressing mmpL3tb G253W; type: cell-based, Mycobacterium smegmatis
[10] = system: MsmgΔmmpL3 expressing mmpL3tb S591W; type: cell-based, Mycobacterium smegmatis
[11] = system: MsmgΔmmpL3 expressing mmpL3tb S591G; type: cell-based, Mycobacterium smegmatis
[12] = system: MsmgΔmmpL3 expressing mmpL3tb F644C/I/L; type: cell-based, Mycobacterium smegmatis
[13] = system: MsmgΔmmpL3 expressing mmpL3tb F644Y; type: cell-based, Mycobacterium smegmatis
[14] = system: MsmgΔmmpL3 expressing mmpL3tb V684I; type: cell-based, Mycobacterium smegmatis
[15] = system: MsmgΔmmpL3 expressing mmpL3tb V684W; type: cell-based, Mycobacterium smegmatis
[16] = system: MsmgΔmmpL3 expressing mmpL3tb S288T; type: cell-based, Mycobacterium smegmatis
[17] = system: MsmgΔmmpL3 expressing mmpL3tb S309C; type: cell-based, Mycobacterium smegmatis
[18] = system: MsmgΔmmpL3 expressing mmpL3tb T311I; type: cell-based, Mycobacterium smegmatis
[19] = system: MsmgΔmmpL3 expressing mmpL3tb Q372R; type: cell-based, Mycobacterium smegmatis
[20] = system: MsmgΔmmpL3 expressing mmpL3tb L567P; type: cell-based, Mycobacterium smegmatis
[21] = system: MsmgΔmmpL3 expressing mmpL3tb F644C; type: cell-based, Mycobacterium smegmatis
purified MmpL3tb protein = purified MmpL3tb protein (Mycobacterium tuberculosis, UniProt P9WJV5); experiment: Surface Plasmon Resonance binding to immobilized MmpL3tb; settings: for Kd: read-out: KD1
[22] = molecular target: T1, MmpL3tb- and MmpL3tb-GFP-coated particles (Mycobacterium tuberculosis, UniProt P9WJV5); type: binding; settings: 15 min at room temperature; various probe concentrations
T1 construct: His tag; made in house; host or cells: Mycobacterium smegmatis ΔmmpL3 carrying pMVGH1-mmpL3tb or pMVGH1-mmpL3tb-gfp

[23] = system: MmpL3tb-GFP in MsmgΔmmpL3/pMVGH1-mmpL3tb-GFP cells; type: cell-based; settings: 2 μM probe, 4 h at 37° C.
MmpL3tb (MmpL3^WT) = MmpL3tb (MmpL3^WT) (Mycobacterium tuberculosis, UniProt P9WJV5); type: binding; settings: 50, 100 and 200 μM
[24] = system: Mtb H37Rv mc^26206 inverted membrane vesicles (IMVs); experiment: Succinate-driven proton translocation assay (ACMA) in inverted membrane vesicles; type: biochemical, Mycobacterium tuberculosis; settings: one and four times MIC against Mtb
Experimental: (§1) FIG. 19A: The reactions were initiated by adding 5 mM succinate. Upon stabilization of the signal, control compounds (INH, RIF, nigericin), the MmpL3 inhibitors or diluent (water, used for INH, or 0.2% DMSO, used for all other compounds) were added and proton translocation monitored fluorimetrically. MmpL3 inhibitors and controls were used at one and four times their MIC concentrations against Mtb. Shown are the averages and standard deviations (error bars) of triplicate measurements.
(§2) Succinate-driven proton translocation assays with the fluorescent substrate ACMA were conducted as previously described (see e.g., Li et al. J. Med. Chem. 2014, 57: 3126-3139) to determine the effect of MmpL3 inhibitors on the electrochemical proton gradient of Mtb H37Rv mc^26206 and E. coli BL21(DE3) IMVs. IMVs (0.18 mg/mL membrane proteins) were pre-incubated at 37° C. in 10 mM HEPES-KOH pH 7.5, 100 mM KCl, 5 mM MgCl2 containing 2 μM ACMA and the baseline monitored for 10 min with a fluorescence spectrophotometer (Victor X5, PerkinElmer). The reaction was then initiated by adding 5 mM succinate. Upon stabilization of the signal, control compounds (INH, RIF, nigericin), MmpL3 inhibitors, or diluent (0.2% DMSO or water) were added and proton translocation monitored fluorimetrically. The excitation and emission wavelengths were 410 nm and 480 nm, respectively.

E. coli BL21(DE3) IMVs = experiment: as above; type: biochemical; settings: 2 μg/mL
Experimental: as §1, §2

purified MmpL3-GFP = purified MmpL3-GFP (Mycobacterium tuberculosis, UniProt P9WJV5); type: binding
[25] = Mycolicibacterium smegmatis, Tables 1A-1B, MmpL3 WT, read-out: MIC

purified MmpL3tb protein, sequence (P9WJV5 whole entry): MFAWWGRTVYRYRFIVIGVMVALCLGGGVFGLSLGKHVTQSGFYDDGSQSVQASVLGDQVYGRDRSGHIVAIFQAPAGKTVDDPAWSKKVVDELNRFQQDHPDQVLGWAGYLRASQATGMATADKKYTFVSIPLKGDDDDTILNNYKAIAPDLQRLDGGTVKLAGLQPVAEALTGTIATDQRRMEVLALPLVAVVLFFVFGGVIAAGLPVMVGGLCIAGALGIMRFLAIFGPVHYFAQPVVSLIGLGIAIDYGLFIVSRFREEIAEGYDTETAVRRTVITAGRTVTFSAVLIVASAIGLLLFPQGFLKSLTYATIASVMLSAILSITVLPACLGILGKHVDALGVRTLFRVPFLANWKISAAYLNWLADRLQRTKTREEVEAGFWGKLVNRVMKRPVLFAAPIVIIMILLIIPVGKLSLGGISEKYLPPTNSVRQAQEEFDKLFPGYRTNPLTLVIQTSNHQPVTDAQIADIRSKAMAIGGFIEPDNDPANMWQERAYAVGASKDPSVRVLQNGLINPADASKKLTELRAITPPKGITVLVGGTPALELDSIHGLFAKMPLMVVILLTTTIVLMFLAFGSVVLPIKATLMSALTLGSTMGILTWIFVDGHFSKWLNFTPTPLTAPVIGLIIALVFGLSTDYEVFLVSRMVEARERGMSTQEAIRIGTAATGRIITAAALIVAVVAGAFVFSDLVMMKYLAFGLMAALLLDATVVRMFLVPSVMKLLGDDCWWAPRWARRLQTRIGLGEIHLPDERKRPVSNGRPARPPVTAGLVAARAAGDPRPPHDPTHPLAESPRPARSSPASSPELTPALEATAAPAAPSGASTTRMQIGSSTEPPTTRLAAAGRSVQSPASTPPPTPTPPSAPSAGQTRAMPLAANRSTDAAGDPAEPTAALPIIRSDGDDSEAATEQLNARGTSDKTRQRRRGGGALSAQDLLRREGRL
MmpL3tb (MmpL3^WT), sequence (P9WJV5 whole entry): as above
T1 sequence (P9WJV5 whole entry): as above
purified MmpL3-GFP, sequence (P9WJV5 whole entry): as above

| Compound | MIC [2] | MIC [3] | MIC [4] | MIC [5] | MIC [6] | MIC [1, 25] | MIC [16] | MIC [17] | MIC [18] | MIC [19] | MIC [20] | MIC [21] | BLI binding signal (MmpL3tb (MmpL3^WT)) | MIC ([1]; Tables 1A-1B, MmpL3 WT) | other results |
| --- | --- | --- | --- | --- | --- | --- | --- | --- | --- | --- | --- | --- | --- | --- | --- |
| N#CC(C#N)=NNc1cccc(Cl)c1 [CCCP] | – | – | – | – | – | – | – | – | – | – | – | – | – | – | MIC (Mtb; against Mtb, FIG. 8 legend): 6.25 µM (≈ 1.28 µg/mL) |
| O=C(O)c1cn(C2CC2)c2cc(N3CCNCC3)c(F)cc2c1=O [CIP, ciprofloxacin] | 0.31 µg/mL (≈ 0.936 µM) | 0.31 µg/mL (≈ 0.936 µM) | 0.31 µg/mL (≈ 0.936 µM) | 0.31 µg/mL (≈ 0.936 µM) | 0.31 µg/mL (≈ 0.936 µM) | – | – | – | – | – | – | – | – | – | MIC ([1]; Mycolicibacterium smegmatis): 0.31 µg/mL (≈ 0.936 µM); MIC ([7]; Mycolicibacterium smegmatis, read-out: MIC): 0.31 µg/mL (≈ 0.936 µM); MIC [8]: 0.31 µg/mL (≈ 0.936 µM); MIC [9]: 0.31 µg/mL (≈ 0.936 µM); MIC [10]: 0.31 µg/mL (≈ 0.936 µM); MIC [11]: 0.31 µg/mL (≈ 0.936 µM); MIC [12]: 0.31 µg/mL (≈ 0.936 µM); MIC [13]: 0.31 µg/mL (≈ 0.936 µM); MIC [14]: 0.31 µg/mL (≈ 0.936 µM); MIC [15]: 0.31 µg/mL (≈ 0.936 µM) |
| CN(C)c1ccc2c(-c3ccc(C(=O)NCCCCCCn4cc(COc5ccc6[nH]c(C(=O)NC7CCCCCCC7)cc6c5)nn4)cc3C(=O)O)c3ccc(=[N+](C)C)cc-3oc2c1 [Compound 1] | >32^b μg/mL | >32^b μg/mL | >32^b μg/mL | >32^b μg/mL | >32^b μg/mL | 8 µg/mL | >32^b μg/mL | >32^b μg/mL | >32^b μg/mL | >32^b μg/mL | 32^b μg/mL | 16 µg/mL | – | – | ka2 (purified MmpL3tb protein; SPR global fit): 0.039 1/RU*s; kd1 (purified MmpL3tb protein; SPR global fit): 0.19 s⁻¹; kd2 (purified MmpL3tb protein; SPR global fit): 0.0273 s⁻¹; ka1 (purified MmpL3tb protein; SPR global fit, HEPES-TX buffer with 5% DMSO): 2138.3 M⁻¹ s⁻¹; Model (best-fit kinetic model) (purified MmpL3tb protein; SPR sensorgrams fit globally): Two-state reaction; Kd (purified MmpL3tb protein; equilibrium dissociation constant calculated from the rate constants): 36.1 µM; SPR binding signal (purified MmpL3tb protein; in words): strong SPR signals; probe binding to coated particles (MFI) [22]: concentration-dependent binding; colocalization with MmpL3tb-GFP [23]: colocalization of the probes with MmpL3tb-GFP |
| C[C@@H]1[C@H]2C[C@@H](C[C@H]1NC(=O)c1cc3ccccc3[nH]1)C2(C)C [North 4] | 1.28^a μg/mL | 1.28^a μg/mL | 0.64^b μg/mL | 1.28^a μg/mL | 0.32 µg/mL (≈ 1.08 µM) | 0.16 µg/mL (≈ 0.54 µM) | 1.28^a μg/mL | 1.28^a μg/mL | 0.08 µg/mL (≈ 0.27 µM) | 0.32 µg/mL (≈ 1.08 µM) | 0.64^b μg/mL | 0.32 µg/mL (≈ 1.08 µM) | consistently bound to MmpL3tb with the strongest signals | – | – |
| Cc1cc(C)c2cc(C(=O)NC3CCCCCCC3)[nH]c2c1 [North 21] | 0.2^b μg/mL | 0.2^b μg/mL | 0.1 µg/mL (≈ 0.335 µM) | 0.2^b μg/mL | 0.05 µg/mL (≈ 0.168 µM) | 0.05 µg/mL (≈ 0.168 µM) | 0.2^b μg/mL | 0.2^b μg/mL | 0.05 µg/mL (≈ 0.168 µM) | 0.05 µg/mL (≈ 0.168 µM) | 0.1 µg/mL (≈ 0.335 µM) | 0.05 µg/mL (≈ 0.168 µM) | consistently bound to MmpL3tb with the strongest signals | – | – |
| CO[C@H]1/C=C/O[C@@]2(C)Oc3c(C)c(O)c4c(O)c(c(/C=N/N5CCN(C)CC5)c(O)c4c3C2=O)NC(=O)/C(C)=C\C=C\[C@H](C)[C@H](O)[C@@H](C)[C@@H](O)[C@@H](C)[C@H](OC(C)=O)[C@@H]1C [RIF, rifampicin] | – | – | – | – | – | – | – | – | – | – | – | – | – | – | MIC (Mtb; Mycobacterium tuberculosis): 0.19 µM (≈ 0.156 µg/mL) |
| CO[C@@H]1C[C@@H](C[C@H]2CC[C@H](C)[C@H]([C@@H](C)C(=O)O)O2)O[C@]2(O[C@](C)([C@H]3CC[C@@](C)([C@@H]4O[C@@H]([C@H]5O[C@@](O)(CO)[C@H](C)C[C@@H]5C)C[C@@H]4C)O3)C[C@H]2C)[C@@H]1C [nigericin] | – | – | – | – | – | – | – | – | – | – | – | – | – | – | MIC (Mtb; Mycobacterium tuberculosis, against Mtb, FIG. 8 legend): 4.31 µM (≈ 3.12 µg/mL); effect on ΔpH of Mtb IMVs [24]: increase of fluorescence intensity indicative of ΔpH collapse; effect on ΔpH of E. coli IMVs (E. coli BL21(DE3) IMVs): collapse the ΔpH of E. coli IMVs |
| AU1235 | 1.56^b μg/mL and 1.25 μg/mL | 3.13^a μg/mL and 5 μg/mL | 3.13^a μg/mL and 2.5 μg/mL | 3.13^a μg/mL and 2.5 μg/mL | 1.56^b μg/mL and 1.25 μg/mL | – | 12.5^a μg/mL | 3.13^b μg/mL | 1.56^b μg/mL | 0.78 µg/mL | 0.78 µg/mL | 0.78 µg/mL | weak binding signal | 0.39 µg/mL | MIC ([1]; Table 2, MmpL3 WT): 0.31 µg/mL; MIC [7]: 0.62^c μg/mL; MIC [8]: 0.62^c μg/mL; MIC [9]: 2.5-5 ^ μg/mL; MIC [10]: 0.62^c μg/mL; MIC [11]: 0.31-0.62^c μg/mL; MIC [12]: 0.62 µg/mL; MIC [13]: 0.15^c μg/mL; MIC [14]: 0.31^c μg/mL; MIC [15]: 0.62 µg/mL; MIC (Mtb; against Mtb, FIG. 8 legend): 0.48 µM; Model (best-fit kinetic model) (purified MmpL3tb protein): Two-state reaction; SPR binding signal (purified MmpL3tb protein): strong SPR signals; ka1 (purified MmpL3tb protein): 1858.1 M⁻¹ s⁻¹; ka2 (purified MmpL3tb protein): 0.019 1/RU*s; kd1 (purified MmpL3tb protein): 0.39 s⁻¹; kd2 (purified MmpL3tb protein): 0.0316 s⁻¹; Kd (purified MmpL3tb protein): 132 µM; displacement of Compound 2 from purified MmpL3tb (purified MmpL3-GFP): clear concentration-dependent displacement; effect on ΔpH of Mtb IMVs [24]: increase of fluorescence intensity indicative of ΔpH collapse; also recorded: also collapsed ΔpH in this assay when used at 4-fold MIC concentration |
| Methyl 4-(3-((3s,5s,7s)-adamantan-1-yl)ureido)-2-((1-(3-(3-(5,5-difluoro-7,9-dimethyl-5H-5λ^4,6λ^4-dipyrrolo[1,2-c:2′,1′-f][1,3,2]diazaborinin-3-yl)propanamido)propyl)-1H-1,2,3-triazol-4-yl)methoxy)benzoate [Compound 4] | – | – | – | – | – | – | – | – | – | – | – | – | – | 64 µg/mL | probe binding to coated particles (MFI) [22]: concentration-dependent binding |
| N-cyclooctyl-5-((1-(3-(3-(5,5-difluoro-7,9-dimethyl-5H-5λ^4,6λ^4-dipyrrolo[1,2-c:2′,1′-f][1,3,2]diazaborinin-3-yl)propanamido)propyl)-1H-1,2,3-triazol-4-yl)methoxy)-1H-indole-2-carboxamide [Compound 3] | – | – | – | – | – | – | – | – | – | – | – | – | – | 32 µg/mL | – |
